Experimental data: patent US4122078A, “Antigens and antibodies of catecholamines” (priority 1975, dated 1978)

What was measured:
[1] = test system: epinephrine antibodies (γ-globulin fraction obtained in Example 2); assay: Equilibrium dialysis method, specificity of the epinephrine antibodies; set-up: species or system rabbit; conditions: binding of 3H-DL-epinephrine (10μl of 3.4×10^-5 M) with 10μl of 3.4×10^-3 M compound; antibody 5.5 × 10^-6 M; 25° C; 100 = no compound
Method: The γ-globulin fraction obtained in Example 2 was dialyzed against the phosphate buffered saline and a solution of the final concentration of 0.94mg/ml was performed prepared. The γ-globulin solution was used as the antibody solution in this method. To the phosphate buffered saline used in this procedure, 0.01% of sodium metabisufite(Na2 S2 O5) and 0.015% ethylenediaminetetraacetic acid disodium salt were added.
An equilibrium dialysis apparatus of 2ml capacity was used and 500μl of the antibody solution was poured into one of a pair cell(cell A) and into another cell(cell B), 10μl of the phosphate buffered saline solution of DL-epinephrine labelled with tritium(^3 H) in a concentration of 3.4×10^-5 M and 490μl of phosphate buffered saline were introduced. They were shaked at 25° C to reach equilibrium and then radioactivity of each solution were counted. The difference of each counts was calculated and made as the standard.
Then, 500μl of γ-globulin solution was put in cell A, and in cell B were introduced 10μl of a solution of the concentration of 3.4×10^-3 M of epinephrine or one of other catecholamine or analogue compounds, 10μl of a phosphate buffered saline solution of ^3 H-epinephrine (3.4×10^-5 M) and 480μl of phosphate buffered saline. The solutions were shaked by the same manner as above and after equilibrium, the radioactivity of each solution were counted. The difference was calculated and the relative bindings were calculated from the standard.

[2] = test system: antiserum to epinephrine-BSA; assay: Ouchterlony method, specificity of antiserum to epinephrine-BSA; assay type: binding, rabbit; set-up: key: the degree of the precipitate formation were indicated by the signs of +++, ++,+-, and -, in turn; the degree of the precipitate formation were indicated by the signs of +++, ++,+-, and -, in turn; the degree of the precipitate formation were indicated by the signs of +++, ++,+-, and -, in turn; the degree of the precipitate formation were indicated by the signs of +++, ++,+-, and -, in turn; conditions: antigen 1mg/ml; antiserum after removal of antibodies to carrier material
Method: (§1) Agar was dissolved in phosphate buffered saline with warming to yield a final concentration of 1.2% and the solution was spread 2 mm in thickness on a glass plate. After cooling, 7 holes of 2mm diameter were made on the center and corners of a true hexagon with 5 mm side. In the center hole, the antiserum obtained above or diluted thereof to 1/2-1/3 with the phosphate buffered saline was filled. In the corner holes, the phosphate buffered saline solution of the conjugate (0.5-1.0mg/ml) and BSA were filled alternately. […] Therefore, an equal volume of BSA solution (1mg/ml) was added to the antiserum and the mixture was allowed to stand at 37° C for 1 hour, then at 4° C overnight. The resulted precipitates were removed by centrifuging. […] This antiserum was then dialyzed with 6M urea solution for 15 hours followed with phosphate buffer (0.007M NaH2 PO4,pH 6.3) for 2 days. The resulting solution was passed through a DEAE-cellulose column and the first fraction (gamma globulin fraction,γG-fraction) was collected with examining the absorbance at 280nm. […] The γG-fraction was dialyzed with water and lyophilized for the stock.
Epinephrine specific antiserum was produced and γG-fraction was obtained by the same manner as in Example 1 using the phosphate buffered saline solution of the conjugate and complete Freund's adjuvant. […]

antiserum to L-dopa-BSA = assay: Ouchterlony method, specificity of antiserum to L-dopa-BSA; assay type: binding, rabbit; set-up: key: the degree of the precipitate formation were indicated by the signs of +++, ++,+-, and -, in turn; the degree of the precipitate formation were indicated by the signs of +++, ++,+-, and -, in turn; the degree of the precipitate formation were indicated by the signs of +++, ++,+-, and -, in turn; the degree of the precipitate formation were indicated by the signs of +++, ++,+-, and -, in turn; conditions: antigen 1mg/ml; antiserum after removal of antibodies to carrier material
Method: The phosphate buffered saline solution of the conjugate was mixed with an equal volume of complete Freund's adjuvant to prepare a w/o type emulsion. The emulsion was intradermally injected to rabbit foot pads in the amount of 2-3mg of the antigen. After four weeks, phosphate buffered saline solution of the conjugate (1mg) was injected into the marginal vein of the rabbit ear. (This operation can be replaced by injecting subcutaneously the w/o emulsion of phosphate buffered saline solution of the conjugate (1mg) and incomplete Freund's adjuvant). One week after the booster injection, the rabbit were bled and the antisera were obtained.
Agar was dissolved in phosphate buffered saline with warming to yield a final concentration of 1.2% and the solution was spread 2 mm in thickness on a glass plate. After cooling, 7 holes of 2mm diameter were made on the center and corners of a true hexagon with 5 mm side. In the center hole, the antiserum obtained above or diluted thereof to 1/2-1/3 with the phosphate buffered saline was filled. […] Therefore, an equal volume of BSA solution (1mg/ml) was added to the antiserum and the mixture was allowed to stand at 37° C for 1 hour, then at 4° C overnight. […] The resulting solution was passed through a DEAE-cellulose column and the first fraction (gamma globulin fraction,γG-fraction) was collected with examining the absorbance at 280nm. […]

[3] = test system: antiserum to norepinephrine; assay: Ouchterlony method, specificity of antiserum to norepinephrine; assay type: binding, rabbit; set-up: key: the degree of the precipitate formation were indicated by the signs of +++, ++,+-, and -, in turn; the degree of the precipitate formation were indicated by the signs of +++, ++,+-, and -, in turn; the degree of the precipitate formation were indicated by the signs of +++, ++,+-, and -, in turn; the degree of the precipitate formation were indicated by the signs of +++, ++,+-, and -, in turn; conditions: antigen 1mg/ml; antiserum after removal of antibodies to carrier material
Method: as §1
By the same manner as in Example 1, the antiserum of norepinephrine was produced and after removing the BSA-antibody, the γ-globuline fraction was obtained.
(§2) The specificity of antisera to the antigens was examined by the Ouchterlony method. […]

[4] = test system: antiserum to dopamine-BSA; assay: Ouchterlony method, specificity of antiserum to dopamine-BSA; assay type: binding, rabbit; set-up: key: the degree of the precipitate formation were indicated by the signs of +++, ++,+-, and -, in turn; the degree of the precipitate formation were indicated by the signs of +++, ++,+-, and -, in turn; the degree of the precipitate formation were indicated by the signs of +++, ++,+-, and -, in turn; the degree of the precipitate formation were indicated by the signs of +++, ++,+-, and -, in turn; conditions: antigen 1mg/ml; antiserum after removal of antibodies to carrier material
Method: as §1
According to the same manner as in Example 1, the dopamine specific antibody and γG-fraction thereof was obtained.
as §2

| Molecule | relative binding (%) [1] | also measured |
| --- | --- | --- |
| NCCc1ccc(O)c(O)c1 [dopamine] | 88.0% | – |
| NC[C@H](O)c1ccc(O)c(O)c1 [L-norepinephrine] | 54.8% | – |
| CNC[C@H](O)c1ccc(O)c(O)c1 [L-epinephrine] | 0% | – |
| O=C(O)Cc1ccc(O)c(O)c1 [3,4-dihydroxyphenylacetic acid] | 83.8% | – |
| COc1cc(CC(=O)O)ccc1O [4-hydroxy-3-methoxyphenylacetic acid] | 91.7% | – |
| norepinephrine-BSA: 20-30 moles of norepinephrine conjugated to one mole of BSA | – | degree of the precipitate formation, antiserum to epinephrine-BSA [2]: +-; degree of the precipitate formation, antiserum to L-dopa-BSA (antiserum to L-dopa-BSA): +-; degree of the precipitate formation, antiserum to norepinephrine [3]: ++; degree of the precipitate formation, antiserum to dopamine-BSA [4]: +- |
| CNCC(O)c1ccc(O)c(OC)c1 (racemic) [DL-methanephrine] | 81.7% | – |
| COc1cc(C(O)CN)ccc1O (racemic) [DL-normetanephrine] | 97.2% | – |
| N[C@@H](Cc1ccc(O)c(O)c1)C(=O)O [L-dopa] | 90.7% | – |
| CC(C)NC[C@H](O)c1ccc(O)c(O)c1 [L-isoproterenol] | 72.9% | – |
